Laboratory results as given in patent US9717737B2, “Vacuolin-1 as an inhibitor of autophagy and endosomal trafficking and the use thereof for inhibiting tumor progression” (The University of Hong Kong, priority 2014, dated 2017).

What was measured:
Type in all cases: cell-based
HeLa cells [1] = assay: Cathepsin L processing (western blot); settings: 1 μM
HeLa cells [2] = assay: Western blot analyses of LC3 and p62
Protocol: Western blot and Immunofluorescence staining analyses—Both assays were performed as described previously (Lu et al., 2013).

HeLa cells [3] = assay: EGFR degradation assay; settings: HeLa cells treated with EGF
Protocol: Since the increase of lysosomal pH normally compromises the lysosomal activity, it was assessed whether vacuolin-1 affects the general lysosomal functions to inhibit autophagy maturation. […] Next, an epidermal growth factor receptor (EGFR) degradation assay was performed to examine whether vacuolin-1 affects the general endosomal-lysosomal pathway. In this assay, HeLa cells were treated with EGF in the presence or absence of vacuolin-1. After EGF binds to its receptors (EGFR), the receptor complex undergoes endocytosis and is targeted tolysosomes for degradation. […] Similarly, a DQ-BSA-green degradation assay was applied to measure the general endosomal-lysosomal degradation. DQ-BSA-green is a BSA labeled with a self-quenching fluorescent dye. After DQ-BSA-green is delivered to lysosomes via endocytosis, it is hydrolyzed into single dye-labeled peptides by lysosomal proteases, thereby relieving self-quenching and the fluorescence can subsequently be monitored by flow cytometry.

HeLa cells [4] = assay: Transmission electron microscopy of treated cells
Protocol: Cell preparation for transmission electron microscopy (TEM)—Cell preparation for TEM was performed as described previously (Mi et al., 2007).

Ic1cccc(/C=N/Nc2nc(N3CCOCC3)nc(N(c3ccccc3)c3ccccc3)n2)c1 [vacuolin-1]
levels of immature form of cathepsin L (HeLa cells [1]): markedly increase | processing of cathepsin L into its mature form (HeLa cells [1]): not affected | fusion block between autophagosomes and lysosomes after removal of compound (reversibility) (HeLa cells [2]; 3 hours after removal from the medium, HeLa cells, 1 μM): completely relieved | potency in suppressing autophagy relative to CQ (HeLa cells [2]; HeLa and PC3 cells, 6 hours, LC3 and p62 western blot): at least ten times more potent than CQ | lipidated LC3-II level (HeLa cells [2]; HeLa cells, vacuolin-1 1 μM): markedly increased | p62 level (HeLa cells [2]; HeLa cells, vacuolin-1 1 μM): accumulated | EGF-triggered EGFR degradation (HeLa cells [3]): inhibited EGF-triggered EGFR degradation | autophagic vacuoles under the electron microscope (HeLa cells [4]; HeLa cells in normal culture conditions, 1 μM): large numbers of autophagic vacuoles were observed | lysosome morphology in electron micrograph (HeLa cells [4]; HeLa cells, versus control): enlarged lysosomes
